In ChEMBL document CHEMBL1133317, “The solid phase synthesis of tetrahydroisoquinolines having cdc25B inhibitory activity” (Bioorg Med Chem Lett, 2000) one finds IC50 data, which are given here for 50 compounds.

The target in this experiment is T1, M-phase inducer phosphatase 2 (Homo sapiens, UniProt P30305).
T1 sequence (P30305 whole entry): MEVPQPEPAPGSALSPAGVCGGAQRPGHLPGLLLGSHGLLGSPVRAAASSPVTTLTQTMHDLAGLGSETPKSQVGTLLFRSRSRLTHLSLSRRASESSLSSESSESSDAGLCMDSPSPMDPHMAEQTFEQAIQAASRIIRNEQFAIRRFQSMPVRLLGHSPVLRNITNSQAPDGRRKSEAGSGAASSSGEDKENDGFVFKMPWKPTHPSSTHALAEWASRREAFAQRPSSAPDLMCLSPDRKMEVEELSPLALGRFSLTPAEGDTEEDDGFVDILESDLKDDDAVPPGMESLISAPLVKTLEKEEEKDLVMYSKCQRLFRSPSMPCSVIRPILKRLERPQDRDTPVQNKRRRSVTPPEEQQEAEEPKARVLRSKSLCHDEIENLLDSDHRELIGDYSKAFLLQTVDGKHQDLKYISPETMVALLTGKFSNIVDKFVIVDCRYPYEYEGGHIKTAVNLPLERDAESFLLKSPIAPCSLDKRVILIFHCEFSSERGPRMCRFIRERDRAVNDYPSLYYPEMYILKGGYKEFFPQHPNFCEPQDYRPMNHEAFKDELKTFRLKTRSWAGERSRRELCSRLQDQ
Put plainly: Compound was measured for its inhibitory activity against Cell division cycle 25B.

Broadly, the IC50 is the point on the concentration scale where inhibition reaches its midpoint. In turn, `O=C(O)[C@@H]1Cc2cc(I)c(OCc3c(Cl)cccc3Cl)c(I)c2CN1C(=O)/C=C/c1cccc(F)c1` displayed an IC50 of 45 µM. The figure for `O=C(O)[C@@H]1Cc2cc(I)c(OCc3ccc(Cl)cc3Cl)c(I)c2CN1C(=O)/C=C/c1ccccc1Cl` is 15 µM; for `O=C(O)[C@@H]1Cc2cc(I)c(OCc3ccc(C(F)(F)F)cc3)c(I)c2CN1C(=O)/C=C/c1ccc2c(c1)OCO2` it is 32 µM. The value for `O=C(O)[C@@H]1Cc2cc(I)c(OCc3ccccc3F)c(I)c2CN1C(=O)/C=C/c1ccc(Cl)c(Cl)c1` was 75 µM; that for `O=C(O)[C@@H]1Cc2cc(I)c(OCCCCl)c(I)c2CN1C(=O)/C=C/c1ccccc1Cl` was 27 µM; that for `O=C(O)[C@@H]1Cc2cc(I)c(OCc3c(Cl)cccc3Cl)c(I)c2CN1C(=O)c1cccnc1Cl` was 45 µM. The figure for `O=C(O)[C@@H]1Cc2cc(I)c(OCc3ccc(Cl)cc3Cl)c(I)c2CN1C(=O)/C=C/c1ccc(Br)cc1` is 23 µM; for `COc1cc(/C=C/C(=O)N2Cc3c(cc(I)c(OCc4ccc(C(F)(F)F)cc4)c3I)C[C@H]2C(=O)O)cc(OC)c1OC` it is 57 µM; for `O=C(O)[C@@H]1Cc2cc(I)c(OCc3ccc(Cl)cc3Cl)c(I)c2CN1C(=O)/C=C/c1cccc(Cl)c1` it is 35 µM. Regarding `O=C(O)[C@@H]1Cc2cc(I)c(OCc3ccc(Cl)cc3Cl)c(I)c2CN1C(=O)/C=C/c1ccccc1Br`, it took 33 µM to reach half-maximal inhibition (IC50). The value for `O=C(O)[C@@H]1Cc2cc(I)c(OCc3ccc(Cl)cc3Cl)c(I)c2CN1C(=O)/C=C/c1cccc(C(F)(F)F)c1` was 15 µM. The value for `O=C(O)[C@@H]1Cc2cc(I)c(OCc3cccc(C(F)(F)F)c3)c(I)c2CN1C(=O)/C=C/c1ccccc1F` was 35 µM. The value for `O=C(O)[C@@H]1Cc2cc(I)c(OCc3ccccc3F)c(I)c2CN1C(=O)c1cccnc1Cl` was 90 µM.

In turn, `O=C(O)[C@@H]1Cc2cc(I)c(OCc3c(Cl)cccc3Cl)c(I)c2CN1C(=O)/C=C/c1cccc(Cl)c1` yielded an IC50 of 20 µM.

The compound `O=C(O)[C@@H]1Cc2cc(I)c(OCCCCl)c(I)c2CN1C(=O)/C=C/c1ccc(Cl)cc1Cl` gave an IC50 of 52 µM. The figure for `O=C(O)[C@@H]1Cc2cc(I)c(OCc3ccc(C(F)(F)F)cc3)c(I)c2CN1C(=O)/C=C/c1ccccc1F` is 55 µM. The figure for `O=C(O)[C@@H]1Cc2cc(I)c(OCc3ccc(Cl)cc3Cl)c(I)c2CN1C(=O)/C(F)=C/c1ccccc1` is 36 µM.

The compound `COc1cccc(COc2c(I)cc3c(c2I)CN(C(=O)/C=C/c2ccc4c(c2)OCO4)[C@H](C(=O)O)C3)c1` yielded an IC50 of 58 µM.

In the case of `O=C(O)[C@@H]1Cc2cc(I)c(OCc3cccc(C(F)(F)F)c3)c(I)c2CN1C(=O)/C=C/c1cccc(Cl)c1`, the IC50 was 40 µM. The figure for `O=C(O)[C@@H]1Cc2cc(I)c(OCc3cccc(C(F)(F)F)c3)c(I)c2CN1C(=O)/C=C/c1ccc([N+](=O)[O-])cc1` is 50 µM; for `COc1cccc(COc2c(I)cc3c(c2I)CN(C(=O)/C=C/c2ccc([N+](=O)[O-])cc2)[C@H](C(=O)O)C3)c1` it is 59 µM; for `O=C(O)[C@@H]1Cc2cc(I)c(OCc3cccc(C(F)(F)F)c3)c(I)c2CN1C(=O)/C=C/c1cccc(C(F)(F)F)c1` it is 50 µM. `COc1cccc(COc2c(I)cc3c(c2I)CN(C(=O)/C=C/c2ccc(Cl)cc2)[C@H](C(=O)O)C3)c1`: 75 µM corresponded to half-maximal inhibition (IC50). The value for `O=C(O)[C@@H]1Cc2cc(I)c(OCc3cccc(C(F)(F)F)c3)c(I)c2CN1C(=O)/C=C/c1ccc2c(c1)OCO2` was 66 µM; that for `O=C(COc1c(I)cc2c(c1I)CN(C(=O)/C=C/c1ccccc1Br)[C@H](C(=O)O)C2)OCc1ccccc1` was 45 µM; that for `O=C(O)[C@@H]1Cc2cc(I)c(OCc3ccc(C(F)(F)F)cc3)c(I)c2CN1C(=O)/C=C/c1ccccc1C(F)(F)F` was 27 µM. The value for `O=C(O)[C@@H]1Cc2cc(I)c(OCc3ccc(Cl)cc3Cl)c(I)c2CN1C(=O)/C=C/c1cccc(Br)c1` was 40 µM. Consider `O=C(O)[C@@H]1Cc2cc(I)c(OCc3ccccc3F)c(I)c2CN1C(=O)/C=C/c1cccc(Cl)c1`, for which the IC50 came out at 60 µM. Compound `O=C(O)[C@@H]1Cc2cc(I)c(OCc3ccc(Cl)cc3Cl)c(I)c2CN1C(=O)/C=C/c1ccc(Cl)c(Cl)c1` returned an IC50 of 30 µM. The value for `COc1cccc(COc2c(I)cc3c(c2I)CN(C(=O)/C=C/c2ccc(C)cc2)[C@H](C(=O)O)C3)c1` was 62 µM; that for `O=C(O)[C@@H]1Cc2cc(I)c(OCc3ccc(Cl)cc3Cl)c(I)c2CN1C(=O)/C=C/c1ccc2c(c1)OCO2` was 60 µM. The value for `O=C(O)[C@@H]1Cc2cc(I)c(OCc3ccc(Cl)cc3Cl)c(I)c2CN1C(=O)CCc1ccccc1` was 50 µM. The figure for `O=C(O)[C@@H]1Cc2cc(I)c(OCc3ccc(Cl)cc3Cl)c(I)c2CN1C(=O)/C=C/c1cccc(F)c1` is 40 µM.

For the compound `O=C(COc1c(I)cc2c(c1I)CN(C(=O)/C=C/c1ccccc1Cl)[C@H](C(=O)O)C2)OCc1ccccc1`, the IC50 came out at 70 µM. The figure for `Cc1ccc(/C=C/C(=O)N2Cc3c(cc(I)c(OCc4cccc(C(F)(F)F)c4)c3I)C[C@H]2C(=O)O)cc1` is 30 µM; for `O=C(O)[C@@H]1Cc2cc(I)c(OCc3ccccc3F)c(I)c2CN1C(=O)/C=C/c1cccc(C(F)(F)F)c1` it is 45 µM. The value for `O=C(O)[C@@H]1Cc2cc(I)c(OCCCCl)c(I)c2CN1C(=O)/C(F)=C/c1ccccc1` was 100 µM. The figure for `O=C(O)[C@@H]1Cc2cc(I)c(OCCCCl)c(I)c2CN1C(=O)/C=C/c1cccc(Br)c1` is 70 µM; for `O=C(O)[C@@H]1Cc2cc(I)c(OCc3cccc(C(F)(F)F)c3)c(I)c2CN1C(=O)/C=C/c1cccc(F)c1` it is 45 µM. Regarding `O=C(O)[C@@H]1Cc2cc(I)c(OCc3c(Cl)cccc3Cl)c(I)c2CN1C(=O)/C=C/c1cccc(C(F)(F)F)c1`, 35 µM corresponded to half-maximal inhibition (IC50). The value for `O=C(O)[C@@H]1Cc2cc(I)c(OCc3ccc(C(F)(F)F)cc3)c(I)c2CN1C(=O)/C=C/c1ccc(Cl)cc1` was 30 µM; that for `O=C(COc1c(I)cc2c(c1I)CN(C(=O)/C(F)=C/c1ccccc1)[C@H](C(=O)O)C2)OCc1ccccc1` was 90 µM; that for `O=C(O)[C@@H]1Cc2cc(I)c(OCc3cccc(C(F)(F)F)c3)c(I)c2CN1C(=O)CCc1ccccc1` was 50 µM. The figure for `O=C(O)[C@@H]1Cc2cc(I)c(OCc3c(Cl)cccc3Cl)c(I)c2CN1C(=O)CCc1ccccc1` is above 100 µM; for `O=C(O)[C@@H]1Cc2cc(I)c(OCc3ccccc3F)c(I)c2CN1C(=O)/C=C/c1cccc(F)c1` it is 75 µM. The value for `O=C(O)C1Cc2cc(I)c(OCc3c(Cl)cccc3Cl)c(I)c2CN1C(=O)C1CCCC1` (stereo not given) was 100 µM; that for `O=C(COc1c(I)cc2c(c1I)CN(C(=O)/C=C/c1ccc(Br)cc1)[C@H](C(=O)O)C2)OCc1ccccc1` was 90 µM.

In turn, `O=C(O)[C@@H]1Cc2cc(I)c(OCCCCl)c(I)c2CN1C(=O)/C=C/c1ccc(Br)cc1` yielded an IC50 of 70 µM. The value for `O=C(O)[C@@H]1Cc2cc(I)c(OCc3c(Cl)cccc3Cl)c(I)c2CN1C(=O)/C=C/c1ccc(Cl)c(Cl)c1` was 55 µM; that for `O=C(COc1c(I)cc2c(c1I)CN(C(=O)/C=C/c1ccc(Cl)cc1Cl)[C@H](C(=O)O)C2)OCc1ccccc1` was 28 µM.
